The source made the active and inactive calls.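 The calls were made as follows: active = caspase luminescence falls with dose and the half-maximal concentration AC50 from the fitted curve is at or below a set limit; inconclusive = flat fit at 30 to 70% signal loss, or invalid fit; inactive = AC50 above the limit, or signal rises instead.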
Each molecule was assayed on INS-1E cytokine-induced caspase-3/7, Caspase-Glo luminescence, 48 h (assay: inhibitors of cytokine-induced caspase-3/7 activity, dose response, orthogonal assay for beta-cell apoptosis protection project, INS-1E rat cells, luminescence (AID 463206)).

SMILES	AC50
C/C(=N\NC(=O)c1nnn(-c2nonc2N)c1-c1ccccc1)c1ccccc1O	> 26 µM (inactive)
Cc1cc(N)c2cc(NC(=O)/C=C/c3ccccc3Cl)ccc2n1	23 µM
NC(=S)N/N=C/c1c(O)c(Br)cc2oc3c(c12)CCCC3	> 26 µM (inactive)
O=S(=O)(c1ccc(Cl)cc1)N1CCN(c2ncnc3sccc23)CC1	> 26 µM (inactive)
O=C(c1cccnc1)N(c1cc2sc(=O)oc2c2ccccc12)S(=O)(=O)c1ccccc1	> 26 µM (inactive)
COc1cccc(/C=N/Nc2nc(Nc3ccccc3)nc(-n3nc(C)cc3C)n2)c1O	> 26 µM (inactive)
N=c1ccn(CC(=O)c2ccc(-c3ccccc3)cc2)cc1	> 26 µM (inactive)
Cc1nc2ccccc2cc1OCc1ccc(F)cc1	> 26 µM (inactive)
Cc1ccc2nc(NNC(=O)c3ccc(S(=O)(=O)N4CCc5ccccc5C4)cc3)sc2c1	> 26 µM (inactive)
COc1ccccc1NC(=O)CN(c1ccc(C23CC4CC(CC(C4)C2)C3)cc1)S(C)(=O)=O	> 26 µM (inactive)
Cc1ccc(Nc2cc(C)nn2-c2nc(C)cc(=O)[nH]2)cc1	> 26 µM (inactive)
C/C(=N/NC(=O)c1cccs1)c1c(C)[nH]n(-c2nc3ccccc3s2)c1=O	> 26 µM (inactive)
O=[N+]([O-])c1c(Nc2ccc(O)cc2)cc(Cl)c2nonc12	> 26 µM (inactive)
Cc1[nH]n(-c2ccccc2)c(=O)c1/C=N\NC(=O)C1COc2ccccc2O1 (stereo unspecified)	> 26 µM (inactive)
N#C/C(=C/c1ccc(N2CCCCCC2)o1)c1ccc(Cl)cc1	> 26 µM (inactive)
COc1ccc2nc(N=Nc3ccc(O)c4ccccc34)sc2c1	> 26 µM (inactive)
COc1ccc(-n2c(-c3ccc(Cl)cc3)c[n+]3c2CCCCC3)cc1	> 26 µM (inactive)
CCC(C)Nc1nc(-c2ccccn2)nc2ccccc12 (stereo unspecified)	> 26 µM (inactive)

SMILES	AC50
Cc1ccc(C(=O)N2N=C(c3ccc(Br)cc3)CC2c2ccccc2O)cc1 (stereo unspecified)	> 26 µM (inactive)
Cc1ccc(C)c(S(=O)(=O)N2CCN(Cc3ccc(O)c4ncccc34)CC2)c1	> 26 µM (inactive)
O=C(Nc1ccc(Cl)cc1)c1nc[nH]c1C(=O)NCCN(CCNC(=O)c1[nH]cnc1C(=O)Nc1ccc(Cl)cc1)CCNC(=O)c1[nH]cnc1C(=O)Nc1ccc(Cl)cc1	> 26 µM (inactive)
CC(C)(C)c1cc(C(=O)N/N=C/c2ccccc2O)n(-c2ccccc2)n1	> 26 µM (inactive)
N#C/C(=N\Nc1cccc([N+](=O)[O-])c1)C(=O)c1ccc(Br)cc1	> 26 µM (inactive)
Cc1ccc(Nc2c(-c3ccccn3)nc3cc(C)ccn23)cc1	> 26 µM (inactive)
Cn1c(=O)[nH]c(=O)c2c1nc(N1CCN(C(c3ccccc3)c3ccccc3)CC1)n2CCO	> 26 µM (inactive)
Cc1cc(C)nc(SCC(=O)Nc2ccnc3ccccc23)n1	> 26 µM (inactive)
CN1/C(=C\C=N\NC(=O)c2ccc(O)cc2)C(C)(C)c2ccccc21	> 26 µM (inactive)
CC(C)(C)c1cc([N+](=O)[O-])cc(C(C)(C)C)c1O	> 26 µM (inactive)
O=C(N/N=C(\c1ccccc1)c1ccccn1)c1cccc([N+](=O)[O-])c1	> 26 µM (inactive)
CCc1ccc(NC(=O)CSc2ccc(-c3ccccn3)nn2)cc1	> 26 µM (inactive)
O=C(CCC(=O)Nc1ccc(Cl)cc1Cl)N/N=C/c1ccc([N+](=O)[O-])o1	> 26 µM (inactive)
CCOC(=O)/C(=C\c1ccccc1)C(=O)c1cc(C(C)=O)c(Nc2ccccc2)s1	> 26 µM (inactive)
NS(=O)(=O)c1ccc(N/N=C2/CCCCC2C2CCCCC2)c([N+](=O)[O-])c1 (stereo unspecified)	> 12 µM (inactive)
COc1ccc(CN(C)C(=O)c2ccc(NS(=O)(=O)c3ccc(F)cc3)cc2)c(OC)c1OC	> 26 µM (inactive)
Cc1ccc(NC(=O)CCC(=O)N/N=C/c2ccc([N+](=O)[O-])o2)cc1C	> 26 µM (inactive)
Cc1cccc(Oc2cc(NC(=O)c3ccccc3)cc([N+](=O)[O-])c2)c1	> 26 µM (inactive)

From PubChem BioAssay AID463206 (Broad Institute, 2010)
